Test system: up to 32 different microorganisms
Assay: in vitro antibacterial activity (MIC), agar dilution on Brain Heart Infusion (BHI) agar with Steers replicator
Assay type: cell-based
Conditions: unit assumed
Procedure, shortened: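 MIC read visually: lowest drug level with no growth, slight haze or sparsely isolated colonies on the inoculum spot relative to drug-free control. Serial aqueous compound dilutions in BHI agar, 1:100 inoculum (1:10 slow strains), 20 to 24 hours at 35°-37° C.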

[1] = Candida albicans CCH 442 (code TT)
[2] = Enterococcus faecism ATCC 8043 (code II)
[3] = Escherichia coli DC-2 (code SS)
[4] = Escherichia coli JUHL (code QQ)
[5] = Haemophilis influenzae DILL AMP R (code WW)
[6] = Micrococcus luteus ATCC 4698 (code PP)
[7] = Micrococcus luteus ATCC 9341 (code OO)
[8] = Mycobacterium smegmatis ATCC 114 (code UU)
[9] = Nocardia Asteroides ATCC9970 (code VV)
[10] = Staphylococcus aureus 1775 (code GG)
[11] = Staphylococcus aureus A5177 (code BB)
[12] = Staphylococcus aureus A-5278 (code CC)
[13] = Staphylococcus aureus ATCC 6538P (code AA)
[14] = Staphylococcus aureus CMX 553 (code FF)
[15] = Staphylococcus aureus CMX 642A (code DD)
[16] = Staphylococcus aureus NCTC10649M (code EE)
[17] = Staphylococcus epidermidis 3519 (code HH)
[18] = Streptococcus Pneumonia 5649 (code ZZA)
[19] = Streptococcus Pneumonia 5979 (code ZZ)
[20] = Streptococcus Pneumonia ATCC6303 (code XX)
[21] = Streptococcus Pneumonia GYR 1171 (code YY)
[22] = Streptococcus agalactiae CMX 508 (code KK)
[23] = Streptococcus bovis A-5169 (code JJ)
[24] = Streptococcus pyogenes 930 (code MM)
[25] = Streptococcus pyogenes EES61 (code LL)
[26] = Streptococcus pyogenes PIU 2548 (code NN)

Structure (SMILES): CC[C@H]1OC(=O)[C@H](C)C(=O)[C@H](C)[C@@H](O[C@@H]2O[C@H](C)C[C@H](N(C)C)[C@H]2O)[C@@](C)(OCC=NNC(=O)c2ccccc2)C[C@@H](C)C(=O)[C@H](C)[C@H]2NC(=O)O[C@@]21C [Example 241, Compound of Formula (IX): L is CO, T is NH, R is —CH2CH═NNHC(O)phenyl]
- MIC (organism code AA): 3.1 mg/L
- MIC (organism code CC): > 100 mg/L
- MIC (organism code DD): 6.2 mg/L
- MIC (organism code EE): 6.2 mg/L
- MIC (organism code FF): 6.2 mg/L
- MIC (organism code GG): > 100 mg/L
- MIC (organism code HH): 6.2 mg/L
- MIC (organism code II): 1.56 mg/L
- MIC (organism code JJ): 0.39 mg/L
- MIC (organism code KK): 1.56 mg/L
- MIC (organism code LL): 0.78 mg/L
- MIC (organism code MM): > 100 mg/L
- MIC (organism code NN): 6.2 mg/L
- MIC (organism code OO): 0.78 mg/L
- MIC (organism code PP): 3.1 mg/L
- MIC (organism code QQ): > 100 mg/L
- MIC (organism code RR): 1.56 mg/L
- MIC (organism code SS): > 100 mg/L
- MIC (organism code TT): > 100 mg/L
- MIC (organism code UU): 100 mg/L
- MIC (organism code VV): 6.2 mg/L
- MIC (organism code WW): 16 mg/L
- MIC (organism code XX): 0.5 mg/L
- MIC (organism code YY): 0.25 mg/L
- MIC (organism code ZZ): > 128 mg/L
- MIC (organism code ZZA): 4 mg/L

Structure (SMILES): CC[C@H]1OC(=O)[C@H](C)C(=O)[C@H](C)[C@@H](O[C@@H]2O[C@H](C)C[C@H](N(C)C)[C@H]2O)[C@@](C)(OCC=Cc2cnc3ccccc3c2)C[C@@H](C)C(=O)[C@H](C)[C@H]2NC(=O)O[C@@]21C [Example 104, Compound of Formula (IX): L is CO, T is NH, R is —CH2CH═CH-(3-quinolyl)]
- MIC [1]: > 100 mg/L
- MIC [2]: 0.05 mg/L
- MIC [3]: 50 mg/L
- MIC [4]: 50 mg/L
- MIC (Escherichia coli SS (code RR)): 0.39 mg/L
- MIC [5]: 2 mg/L
- MIC [6]: 0.05 mg/L
- MIC [7]: ≤ 0.005 mg/L
- MIC [8]: 0.39 mg/L
- MIC [9]: 0.01 mg/L
- MIC [10]: > 100 mg/L
- MIC [11]: 0.05 mg/L
- MIC [12]: > 100 mg/L
- MIC [13]: 0.05 mg/L
- MIC [14]: 0.1 mg/L
- MIC [15]: 0.05 mg/L
- MIC [16]: 0.1 mg/L
- MIC [17]: 0.05 mg/L
- MIC [18]: 0.25 mg/L
- MIC [19]: 16 mg/L
- MIC [20]: 0.03 mg/L
- MIC [21]: 0.03 mg/L
- MIC [22]: 0.01 mg/L
- MIC [23]: 0.01 mg/L
- MIC [24]: 1.56 mg/L
- MIC [25]: ≤ 0.005 mg/L
- MIC [26]: 0.1 mg/L

Structure (SMILES): CCC1OC(=O)C(C)C(=O)C(C)C(OC2OC(C)CC(N(C)C)C2O)C(C)(OCC=Cc2ccc(C)c3ccccc23)CC(C)C(=O)C(C)C2NC(=O)OC12C (centres unmarked) [Example 276, Compound of Formula (IX): L is CO, T is NH2, R is —CH2CH═CH-(4-methylnaphthyl)]
- MIC (organism code AA): 0.39 mg/L
- MIC (organism code BB): 0.78 mg/L
- MIC (organism code CC): 50 mg/L
- MIC (organism code DD): 0.39 mg/L
- MIC (organism code EE): 0.78 mg/L
- MIC (organism code FF): 0.78 mg/L
- MIC (organism code GG): 25 mg/L
- MIC (organism code HH): 0.78 mg/L
- MIC (organism code II): 0.2 mg/L
- MIC (organism code JJ): 0.02 mg/L
- MIC (organism code KK): 0.1 mg/L
- MIC (organism code LL): 0.02 mg/L
- MIC (organism code MM): 25 mg/L
- MIC (organism code NN): 0.39 mg/L
- MIC (organism code OO): 0.1 mg/L
- MIC (organism code PP): 0.39 mg/L
- MIC (organism code QQ): > 100 mg/L
- MIC (organism code RR): 6.2 mg/L
- MIC (organism code SS): > 100 mg/L
- MIC (organism code TT): > 100 mg/L
- MIC (organism code UU): 0.78 mg/L
- MIC (organism code VV): 1.56 mg/L
- MIC (organism code WW): 8 mg/L
- MIC (organism code XX): 0.125 mg/L
- MIC (organism code YY): 0.125 mg/L
- MIC (organism code ZZ): 16 mg/L
- MIC (organism code ZZA): 0.5 mg/L

Structure (SMILES): CC[C@H]1OC(=O)[C@H](C)C(=O)[C@H](C)[C@@H](O[C@@H]2O[C@H](C)C[C@H](N(C)C)[C@H]2O)[C@@](C)(OCCCc2ccccc2)C[C@@H](C)C(=O)[C@H](C)[C@H]2OC(=O)O[C@@]21C [Example 73, Compound of Formula (IX): L is CO, T is O, R is —CH2CH2CH2-Phenyl]
- MIC [1]: > 100 mg/L
- MIC [2]: 0.1 mg/L
- MIC [3]: > 100 mg/L
- MIC [4]: > 100 mg/L
- MIC (Escherichia coli SS (code RR)): 3.1 mg/L
- MIC [5]: 16 mg/L
- MIC [6]: 0.2 mg/L
- MIC [7]: 0.1 mg/L
- MIC [8]: 0.78 mg/L
- MIC [9]: 0.39 mg/L
- MIC [10]: 100 mg/L
- MIC [11]: 0.39 mg/L
- MIC [12]: > 100 mg/L
- MIC [13]: 0.39 mg/L
- MIC [14]: 0.39 mg/L
- MIC [15]: 0.39 mg/L
- MIC [16]: 0.39 mg/L
- MIC [17]: 0.39 mg/L
- MIC [18]: 1 mg/L
- MIC [19]: 64 mg/L
- MIC [20]: 0.125 mg/L
- MIC [21]: 0.125 mg/L
- MIC [22]: 0.05 mg/L
- MIC [23]: 0.05 mg/L
- MIC [24]: 12.5 mg/L
- MIC [25]: 0.05 mg/L
- MIC [26]: 0.2 mg/L

Structure (SMILES): CC[C@H]1OC(=O)[C@H](C)C(=O)[C@H](C)[C@@H](O[C@@H]2O[C@H](C)C[C@H](N(C)C)[C@H]2O)[C@@](C)(OCC=NO)C[C@@H](C)C(=O)[C@H](C)[C@@H](O)[C@]1(C)O [Example 5, Compound of Formula (VIII): X is O, R is —CH2CH═NOH]
- MIC [1]: > 100 mg/L
- MIC [2]: 6.2 mg/L
- MIC [3]: > 100 mg/L
- MIC [4]: > 100 mg/L
- MIC (Escherichia coli SS (code RR)): 6.2 mg/L
- MIC [5]: > 128 mg/L
- MIC [6]: 6.2 mg/L
- MIC [7]: 0.78 mg/L
- MIC [8]: > 100 mg/L
- MIC [9]: 6.2 mg/L
- MIC [10]: > 100 mg/L
- MIC [11]: 6.2 mg/L
- MIC [12]: > 100 mg/L
- MIC [13]: 6.2 mg/L
- MIC [14]: 12.5 mg/L
- MIC [15]: 12.5 mg/L
- MIC [16]: 12.5 mg/L
- MIC [17]: 6.2 mg/L
- MIC [18]: 16 mg/L
- MIC [19]: > 128 mg/L
- MIC [20]: 8 mg/L
- MIC [21]: 4 mg/L
- MIC [22]: 1.56 mg/L
- MIC [23]: 1.56 mg/L
- MIC [24]: > 100 mg/L
- MIC [25]: 3.1 mg/L
- MIC [26]: 6.2 mg/L
